The record followed here is article PMC6161432 (The Journal of Venomous Animals and Toxins Including …, 2018).

“Also recorded” adds a separate entry of the source. Read-outs that look alike come from different tables or passages of the source.

Data set [1] concerns Leishmania (L.) infantum intracellular amastigotes. Kind of data set: Activity against L. (L.) infantum intracellular amastigotes in mouse peritoneal macrophages (Giemsa counting, parasitic index). In kind it is cell-based. The settings on record: for EC50: read-out: EC50 Leishmania (L.) infantum Amastigote (95% CI). As for the experimental part: (§1) Isolated promastigotes of Leishmania (L.) infantum (MHOM/BR/1972/LD) were maintained in M-199 medium supplemented with 10% calf serum and 0.25% hemin at 24 °C. The L. (L.) infantum (MHOM/BR/1972/LD) was maintained in hamsters (Mesocricetus auratus). Amastigotes were harvested from spleens of infected hamsters. The animals were infected with 10^8 amastigotes (300 μL) by the i.p. route. At 60 days post-infection, the animals were euthanized, and the spleens analyzed by light microscopy using Giemsa-stained smears. The parasite load was expressed in Leishman-Donovan units (i.e., the number of amastigotes per 1000 nucleated cells x organ weight [in g] × 2 × 10^5). Briefly, the spleen was macerated in a tissue grinder tube containing 5 mL of phosphate-buffered saline (PBS), whereas the amastigotes were separated by differential centrifugation to obtain a suspension of parasites. The first centrifugation of the spleen suspension (0.8 rpm) was employed to separate the red and white cells (pellet) from the amastigote forms (supernatant). Next, a second centrifugation of the supernatant from the previous step (2.8 rpm) was performed to concentrate the amastigote forms.
Peritoneal macrophages were collected from the peritoneal cavity of female BALB/c mice by washing with RPMI-1640 without phenol red, supplemented with 10% fetal bovine serum.
Amastigotes were isolated from spleens of previously infected hamsters, and separated by differential centrifugation. The tissue sample was macerated to break the cell membranes to release all cell contents including the amastigotes. Then the lysate was subjected to two repeated centrifugations (0.8 rpm followed 2.8 rpm) where density separation causes a sediment. The supernatant and the pellet were recovered via the first and second centrifugation, respectively. […] Non-internalized parasites were removed by washing once with medium, whereas tested compounds were incubated with infected macrophages for 96 h. Miltefosine was also used as a standard control drug. Subsequently, the cells were fixed with MeOH, stained with Giemsa and observed through a light microscope. The parasite burden was determined by the ratio of infected macrophages versus the mean number of amastigotes per macrophage out of 500 macrophages, i.e., the parasitic index (PI). […] Each point was tested in duplicate.
(§2) The obtained data represent the mean and standard deviation of duplicate samples from two independent assays. EC50 values were calculated using sigmoid dose–response curves in the software GraphPad Prism 5.0; the 95% confidence intervals are included in parentheses. The Mann–Whitney test was used for the significance test (P value).

The subject of data set [2] is Leishmania (L.) infantum promastigotes. Kind of data set: Activity against L. (L.) infantum promastigotes (MTT viability assay). In kind it is cell-based. As to conditions: 48 h at 24 °C, NA = not active, maximum tested concentration 100 μM; for EC50: read-out: EC50 Leishmania (L.) infantum Promastigote (95% CI). The protocol:
as §1
Promastigotes were counted in a Neubauer hemocytometer and seeded at 1 × 10^6/well to obtain a final volume of 150 μL. Controls with DMSO and without drugs were also performed. Miltefosine was dissolved in H2O at 30 mg/mL and used as a standard drug. […] Each point was tested in duplicate. The plate was incubated for 48 h at 24 °C and the viability of promastigotes was verified by morphology in light microscopy and by the MTT assay. Briefly, MTT ([…]) was dissolved in PBS, sterilized through 0.22 μm membranes and added (20 μL/well) for 4 h at 24 °C. Promastigotes were incubated without compounds and used as viability control. Formazan extraction was performed using 10% SDS for 18 h (80 μL/well) at 24 °C and the optical density (OD) was determined in a Multiskan MS (UNISCIENCE) at 550 nm. One hundred percent (100%) viability was expressed based on the OD of control promastigotes, after normalization.
as §2
(In general: Formazan colour is commonly taken as a measure of viable cells.)

Data set [3] can be described thus: Cytotoxicity against mammalian cells (MTT assay). As to conditions: mouse.
The next data set deals with NCTC clone L-929 cells. Kind of data set: Cytotoxicity against mammalian cells (MTT assay). As to conditions: CC50 against mammalian cells / EC50 against amastigotes.
Where [4] appears, read: Peritoneal macrophage, 96 h, intracellular amastigotes in BALB/c peritoneal macrophages, 96 h incubation, NA = not active, maximum tested concentration 100 μM.
Setting [5] is: intracellular amastigotes in BALB/c peritoneal macrophages, 96 h incubation, NA = not active, maximum tested concentration 100 μM.

Usually EC50 stands for the midpoint of the concentration-response curve. For orientation: CC50 means the concentration at which the toxic effect on the cells reaches its halfway point. Regarding `C=CCc1ccc(Oc2cc([C@H](O)C=C)cc(OC)c2OC)c(OC)c1` [Compound 4, 1-[(7R)-hydroxy-8-propenyl]-3-[3′-methoxy-1′-(8′-propenyl)-phenoxy]-4,5-dimethoxybenzene], the values for the EC50 in data set [1] (setting [4]) and in data set [2] (48 h) were 67.7 µM and 65.4 µM, respectively. The compound also came in with a CC50 at 48 h in data set [3] (NCTC clone L-929 cells) of over 200 µM. Moreover, the “SI Amastigote (selectivity index)” value in the data set on NCTC clone L-929 cells is over 2.9.

As to `CCCCCCCCCCCCCCCCOP(=O)([O-])OCC[N+](C)(C)C` [miltefosine, reference compound], the EC50 in data set [1] (setting [4]) turned out to be 16.4 µM; in data set [1] (setting [5]) it was 16.9 µM; in data set [2] (48 h) it was 16.9 µM; in data set [2], 16.4 µM. This compound also came in with a CC50 at 48 h in data set [3] (NCTC clone L-929 cells) of 122 µM. Further, the “SI Amastigote (selectivity index)” value in the data set on NCTC clone L-929 cells worked out at 7.2.

On to `C=CCc1cc(OC)c(OC)c(-c2cc(CC=C)cc(OC)c2OC)c1` [Compound 6, dehydrodieugenol dimethyl ether], for which the figures for the EC50 in data set [1] (setting [4]) and in data set [2] (48 h) were 13.7 µM and 88.8 µM, respectively. In data set [3] (NCTC clone L-929 cells), the 50% cytotoxic concentration (CC50) at 48 h is over 200 µM. For the same compound, the “SI Amastigote (selectivity index)” value in the data set with NCTC clone L-929 cells is on record as over 14.6.

Consider `C=CCc1cc(OC)c(O)c(-c2cc(CC=C)cc(OC)c2O)c1` [Compound 5], for which the “EC50 Leishmania (L.) infantum Amastigote (95% CI)” value in data set [1] (setting [5]) was “inactive”. Besides, the “EC50 Leishmania (L.) infantum Promastigote (95% CI)” value in data set [2] is “no activity”. This compound also registered a CC50 at 48 h in data set [3] (NCTC clone L-929 cells) of 58.1 µM.

For the compound `C=CCc1ccc(OC)c(OC)c1` [methyleugenol], the “EC50 Leishmania (L.) infantum Amastigote (95% CI)” value in data set [1] (96 h, 100 µM) is listed as “no activity”; in data set [1] (setting [5]), “did not display activity”. In addition, in data set [3], the CC50 at 48 h was over 200 µM.

Turning to `C=CCc1ccc(Oc2cc([C@H](O)C=C)cc(OC)c2O)c(OC)c1` [Compound 3, 1-[(7R)-hydroxy-8-propenyl]-3-[3′-methoxy-1′-(8′-propenyl)-phenoxy]-4-hydroxy-5-methoxybenzene], in data set [1] (setting [5]), the “EC50 Leishmania (L.) infantum Amastigote (95% CI)” value was “inactive”. Besides, in data set [2], the “EC50 Leishmania (L.) infantum Promastigote (95% CI)” value was “no activity”. Further, the CC50 at 48 h in data set [3] (NCTC clone L-929 cells) is over 200 µM.

`C=CCc1ccc(O)c(OC)c1` [eugenol, reference compound]: the “EC50 Leishmania (L.) infantum Amastigote (95% CI)” value in data set [1] (setting [5]) is “did not display activity; also recorded: no activity”. Further, the “EC50 Leishmania (L.) infantum Promastigote (95% CI)” value in data set [2] is reported as “no activity”. This compound registered a CC50 at 48 h in data set [3] (NCTC clone L-929 cells) of over 200 µM.
